Data from patent US20110166066A1, “CATESTATIN (CST) AND ITS VARIANTS FOR TREATMENT OF CARDIOVASCULAR AND METABOLIC DISORDERS” (priority 2008, published 2011).
Read-outs that look alike come from different tables or passages of the source. No end group written: not given here.

Key:
[1] = test system: Langendorff perfused rat heart; assay: WT-CST inotropism/lusitropism in presence of adrenergic, cholinergic, Gi/o and NO-pathway inhibitors (Langendorff heart); details: for Negative inotropism with muscarinic receptor antagonist: WT-CST 110 nM + Atropine 10 nM; for Negative inotropism with β-adrenoceptor antagonist: WT-CST 110 nM + Nadolol 10 nM; for Negative inotropism with α-adrenoceptor antagonist: WT-CST 110 nM + Phentolamine 100 nM; for Negative inotropism with Gi/o protein inhibition: WT-CST 110 nM after PTx 0.01 nM; for LVP change: preliminary experiments
Procedure: Adrenergic and cholinergic receptors involvement—To obtain information on the involvement of β1/β2, α-adrenergic receptors (ARs) and cholinergic receptors (AchR) on the inotropic and lusitropic effects induced by WT-Cts, cardiac preparations, stabilized for 20 min with KHs, were perfused with Nadolol (10 nM) or Phentolamine (100 nM) or Atropine (10 nM) for 10 min and then washed-out with KHs. After returning to control conditions, each heart was perfused with KHs containing a single concentration of Cts WT (110 nM) plus Nadolol (10 nM) or Phentolamine (100 nM) or Atropine (10 nM) for an additional 10 min.
Involvement of inhibitory G-protein (Gi/o)—To evaluate the involvement of inhibitory G-proteins in the cardiac action of WT-Cts, hearts were preincubated for 60 min with KHs enriched with pertussis toxin (PTx: 0.01 nM) and then exposed for 10 min to WT-Cts (110 nM). PTx catalyzes ADP-ribosylation of Gi/o alpha-subunit, uncoupling Gi-membrane receptor interaction.
NO-pathway inhibitor stimulated preparations—Hearts were stabilized for 20 min with KHs, perfused with 110 nM WT-Cts for 10 min and then the peptide was washed-out with KHs. After returning to control conditions, each heart was perfused with KHs containing either the NO scavenger PTIO, the non-specific NOS inhibitor L-NMMA, a soluble guanylate cyclase inhibitor (ODQ) or a protein kinase G blocker (KT5823). Subsequently, the hearts were exposed to the specific signaling inhibitor plus 110 nM of WT-Cts.

[2] = test system: PLN (phospholamban) Ser16; assay: Immunoblot of phosphorylated PLN in WT-CST perfused hearts; parameters: species or system rat; details: 110 nM
Procedure: Cardiac signaling—Hearts were perfused with or without 110 nM WT-Cts as before. At the end of experiment hearts were snap frozen under liquid nitrogen and homogenized with 1 ml of ice cold 0.2 M sucrose, Tris maleate (pH 7.0) buffer supplemented with 2 mM EDTA, pH 8.0, 1 mM sodium orthovanadate, 10 mM sodium pyrophosphate, 1 mM phenylmethylsulfonyl fluoride, 10 μg/ml leupeptin, 10 μg/ml aprotinin and 0.1 mM 3-isobutyl-1-methylxanthine. SR membrane fractions were isolated from cytosolic proteins as described before (27). Protein content was determined by Bradford assay (BIO-RAD) and 100 μg of cytosolic protein was subjected to SDS-PAGE immunoblot analysis for phosphorylated-ERK, total ERK (P-ERK and T-ERK; Santa Cruz, Calif.). […]
Statistics—Data are expressed as the mean±SEM. Curve fitting was accomplished in the program Kaleidagraph (Synergy Software, Reading, Pa.). […] For analysis of phosphorylated proteins, levels were quantified using Bio-Rad QuantifyOne and volumes of phosphorylated proteins were divided by the levels of non-phosphorylated proteins to calculate fold activation. Stimulation of protein activity was expressed as fold increase over vehicle-treated control. The means and S.E.M. were calculated for each treatment. […]

[3] = test system: WT and Chga knockout (KO) mice; assay: BP and HR by telemetry in immobilization stress, conscious mice; format: in vivo
From the text: Animals. Chga knockout (KO) mice and their wild-type (WT) littermates were generated as described (13). All animals were housed on a 12 hr light dark cycle and fed a standard rodent chow. The Animal Care and Use Committee of University of California at San Diego approved all protocols for animal use and euthanasia in accordance with National Institute of Health guidelines. Both WT and KO mice (5-6 month old) in this study were from mixed (129 SvJ and C57BL/6) genetic background.
Conscious mice. Measurement of BP and HR in immobilization stress-induced telemetered mice: BP & HR were measured by telemetry as described previously (13). The experiments were initiated 10 days after the surgery. Immobilization stress was initiated by placing mice in restrainer (Braintree Scientific Inc, Braintree, Mass.) at 10:00 AM and kept for 2 hrs for continuous recording of BP and HR by telemetry followed by recovery from stress in home cages for 2 hrs. CST was injected (40 μg/g bw ip) 30 minutes before stress induction to explore the role of CST in stress response.

[4] = test system: pAMPK; assay: AMPK signalling by immunoblotting of mouse tissues; format: in vivo; details: CgA-KO mice
From the text: Adult WT (C57BL/6) and CgA-KO mice with mixed genetic background (129svJ×C57BL/6) were used in this study. Both WT and KO mice were generated from the original founder carrying mixed genotype (50% 129svJ: 50% C57BL/6) and were maintained by brother/sister mating. Hypertensive CGA-KO mice will serve as a model for hyper insulin sensitivity. WT mice were fed 60% high fat diet (HFD) for 20 weeks. Body weight and blood glucose levels were monitored and glucose and insulin tolerance testa were performed to determine status of insulin resistance. After 20 weeks of HFD feeding mice were injected IP with catestatin (40 μg/gm body weight) twice daily for 7 days. On the 8th day, 12 hours fasted mice were subjected to glucose tolerance tests to determine their insulin sensitivity. Tissues of WT and CgA-KO mice are analyzed AMPK and eNOS signalling by immunoblotting.

[5] = test system: sympathochromaffin cells; details: in vitro, cited from earlier work

## SSMKLSFRARAYGFRGPGPQL [WT-CST, catestatin]
[1]
  Negative inotropism with muscarinic receptor antagonist: remained unaffected
  Negative inotropism with β-adrenoceptor antagonist: abolished
  Negative inotropism with α-adrenoceptor antagonist: reduced
  Negative inotropism with Gi/o protein inhibition: abolished
[1]; listed as WT-Cts
  Negative inotropism with muscarinic receptor antagonist: Unchanged
  Negative inotropism with β-adrenoceptor antagonist: Abolished
  Negative inotropism with α-adrenoceptor antagonist: Reduced
  Negative inotropism with Gi/o protein inhibition: Abolished
[1]; WT-CST 110 nM + KT5823 0.1 μM
  CST-induced changes in cardiac performance with PKG inhibition by KT5823: failed to affect
[1]; WT-CST 110 nM + L-NMMA 10 μM
  Negative inotropism and lusitropism with NOS inhibition by L-NMMA: abolished
[1]; WT-CST 110 nM + ODQ 10 μM
  Negative inotropism and lusitropism with sGC blockade by ODQ: abolished
[1]; WT-CST 110 nM + PTIO 10 μM
  Negative inotropism and lusitropism with NO removal by PTIO: abolished
[1]; WT-CST 110 nM, Table 1
  Negative inotropism with eNOS-NO-cGMP-PKG pathway inhibition: Abolished
[1]; WT-Cts + L-NIO (eNOS selective inhibitor)
  LVP change: 5.04±1.69
[1]; WT-Cts + Vinyl-L-NIO (nNOS selective inhibitor)
  LVP change: −13.14±2.25
[1]; WT-Cts alone
  LVP change: −18.19±2.27
[2]
  Phosphorylation of PLN at Ser16: inhibited
[3]; KO mice
  Heightened HR responses to stress: abolished
  SBP after 1 h of recovery from the stress: brought SBP to WT level
[3]; KO mice, 40 μg/g bw ip
  Basal SBP: decreased
  Stress-induced increments in SBP: attenuated
[3]; KO mice, stress and recovery
  HR AUC: 143340±1889
  SBP AUC: 26639±399
[3]; WT and KO mice
  Basal or stress-induced increments in DBP: no significant effect
[3]; WT mice
  Basal and stress-induced increase in HR: no effect
[3]; WT mice, 40 μg/g bw ip
  Basal SBP: no effect
[3]; WT mice, 40 μg/g bw ip 30 min before stress
  Attenuation of stress-induced increments in SBP: 7.1 mmHg
[4]
  pAMPK signal: reduced
[5]; listed as wild-type (WT)
  Rank order of potency, inhibition of catecholamine secretion: Pro370Leu>wild-type (WT)>Gly364Ser>Arg374Gln
[5]; listed as wildtype (WT)
  Rank order of potency, inhibition of catecholamine secretion: Pro370Leu>wildtype (WT)>Gly364Ser>Arg374Gln
